These results are taken from ChEMBL document CHEMBL4219204, “Structure-based design and discovery of potent and selective KDM5 inhibitors” (Bioorg Med Chem Lett, 2018).

Data set [1] is described as follows: Clearance in CD-1 mouse at 5 mg/kg, iv. The data set is classed as ADME, organism-based. As to conditions: in vivo; call rule not given here.
Data set [2] addresses Lysine-specific demethylase 5B (Homo sapiens, UniProt Q9UGL1). Briefly: Inhibition of KDM5B (unknown origin) preincubated with enzyme.
Data set [3] relates to Mus musculus. Briefly: In vivo inhibition of KDM5 in nude mouse xenografted with human MCF7 cells assessed as increase in H3K4me3 level in tumor at 75 mg/kg, po qd for 5 days measured at 0.5 hrs post last dose by Western blot analysis relative to control. The data set is classed as functional. In general terms: A xenograft is tissue or cells of one species grown in another, often human tumour cells in immunodeficient mice.

Data set [4] in a line: Oral bioavailability in CD-1 mouse at 10 mg/kg. In kind it is ADME, organism-based. As to conditions: in vivo.
The nature of data set [5]: Kinetic solubility of the compound. The data set is classed as physicochemical.
The target in data set [6] is T1, Lysine-specific demethylase 4E (Homo sapiens, UniProt B2RXH2).
T1 sequence (B2RXH2 whole entry): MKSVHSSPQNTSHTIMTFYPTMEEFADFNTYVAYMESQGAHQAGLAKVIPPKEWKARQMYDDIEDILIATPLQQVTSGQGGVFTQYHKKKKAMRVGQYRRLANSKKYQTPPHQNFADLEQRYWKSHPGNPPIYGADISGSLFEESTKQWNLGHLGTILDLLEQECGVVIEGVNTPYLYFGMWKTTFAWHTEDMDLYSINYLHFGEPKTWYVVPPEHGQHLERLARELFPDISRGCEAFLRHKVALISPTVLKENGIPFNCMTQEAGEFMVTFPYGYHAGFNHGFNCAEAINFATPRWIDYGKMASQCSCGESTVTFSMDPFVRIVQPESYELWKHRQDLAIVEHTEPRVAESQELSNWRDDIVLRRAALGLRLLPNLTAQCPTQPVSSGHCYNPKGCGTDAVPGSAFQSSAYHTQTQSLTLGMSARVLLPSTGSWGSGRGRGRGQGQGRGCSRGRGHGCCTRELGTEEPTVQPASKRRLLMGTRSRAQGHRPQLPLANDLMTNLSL
Briefly: Inhibition of KDM4E (unknown origin).

Data set [7] addresses ATP-dependent translocase ABCB1 (Homo sapiens, UniProt P08183). Briefly: Inhibition of MDR1 (unknown origin). The data set is classed as ADME.
Data set [8] addresses T2, Lysine-specific demethylase 2A (Homo sapiens, UniProt Q9Y2K7).
T2 sequence (Q9Y2K7 whole entry): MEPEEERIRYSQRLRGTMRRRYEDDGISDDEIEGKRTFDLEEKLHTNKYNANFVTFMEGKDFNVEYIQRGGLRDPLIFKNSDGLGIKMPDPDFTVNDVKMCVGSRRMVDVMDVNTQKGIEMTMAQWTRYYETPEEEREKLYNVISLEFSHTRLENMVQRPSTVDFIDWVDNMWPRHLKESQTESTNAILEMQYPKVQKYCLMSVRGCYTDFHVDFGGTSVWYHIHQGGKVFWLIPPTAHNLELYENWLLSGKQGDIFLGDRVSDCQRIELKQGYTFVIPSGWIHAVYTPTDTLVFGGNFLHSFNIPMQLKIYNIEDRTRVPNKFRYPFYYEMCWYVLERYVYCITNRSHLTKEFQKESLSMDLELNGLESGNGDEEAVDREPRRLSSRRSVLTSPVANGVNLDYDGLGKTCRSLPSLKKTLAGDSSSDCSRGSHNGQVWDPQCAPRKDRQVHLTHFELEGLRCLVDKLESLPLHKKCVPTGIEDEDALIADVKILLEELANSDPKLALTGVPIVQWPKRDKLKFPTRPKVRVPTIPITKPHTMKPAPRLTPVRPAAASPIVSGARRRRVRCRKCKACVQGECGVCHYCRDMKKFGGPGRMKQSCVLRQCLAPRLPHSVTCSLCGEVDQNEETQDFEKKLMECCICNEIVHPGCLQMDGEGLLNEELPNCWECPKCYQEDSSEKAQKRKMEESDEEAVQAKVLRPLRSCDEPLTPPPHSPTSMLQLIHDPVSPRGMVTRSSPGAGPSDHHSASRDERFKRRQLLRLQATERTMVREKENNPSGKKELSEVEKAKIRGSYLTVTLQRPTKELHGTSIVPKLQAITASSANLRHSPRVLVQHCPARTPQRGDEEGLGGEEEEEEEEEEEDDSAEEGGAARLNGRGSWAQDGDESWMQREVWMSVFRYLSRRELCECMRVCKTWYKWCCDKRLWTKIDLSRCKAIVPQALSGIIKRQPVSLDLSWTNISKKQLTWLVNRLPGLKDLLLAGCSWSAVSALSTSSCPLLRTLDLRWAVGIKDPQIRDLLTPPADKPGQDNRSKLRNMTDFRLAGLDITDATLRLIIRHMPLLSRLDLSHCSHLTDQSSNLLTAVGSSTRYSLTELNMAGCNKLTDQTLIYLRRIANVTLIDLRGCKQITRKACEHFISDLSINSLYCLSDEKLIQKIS
Briefly: Inhibition of KDM2A (unknown origin).

For data set [9], the system named is Mus musculus. Briefly: In vivo inhibition of KDM5 in nude mouse xenografted with human MCF7 cells assessed as increase in H3K4me3 level in tumor at 75 mg/kg, po qd for 5 days measured at 1 hrs post last dose by Western blot analysis relative to control. The data set is classed as functional.

The structures appear in SMILES notation.

Chain of ATP-dependent translocase ABCB1 (P08183 whole entry): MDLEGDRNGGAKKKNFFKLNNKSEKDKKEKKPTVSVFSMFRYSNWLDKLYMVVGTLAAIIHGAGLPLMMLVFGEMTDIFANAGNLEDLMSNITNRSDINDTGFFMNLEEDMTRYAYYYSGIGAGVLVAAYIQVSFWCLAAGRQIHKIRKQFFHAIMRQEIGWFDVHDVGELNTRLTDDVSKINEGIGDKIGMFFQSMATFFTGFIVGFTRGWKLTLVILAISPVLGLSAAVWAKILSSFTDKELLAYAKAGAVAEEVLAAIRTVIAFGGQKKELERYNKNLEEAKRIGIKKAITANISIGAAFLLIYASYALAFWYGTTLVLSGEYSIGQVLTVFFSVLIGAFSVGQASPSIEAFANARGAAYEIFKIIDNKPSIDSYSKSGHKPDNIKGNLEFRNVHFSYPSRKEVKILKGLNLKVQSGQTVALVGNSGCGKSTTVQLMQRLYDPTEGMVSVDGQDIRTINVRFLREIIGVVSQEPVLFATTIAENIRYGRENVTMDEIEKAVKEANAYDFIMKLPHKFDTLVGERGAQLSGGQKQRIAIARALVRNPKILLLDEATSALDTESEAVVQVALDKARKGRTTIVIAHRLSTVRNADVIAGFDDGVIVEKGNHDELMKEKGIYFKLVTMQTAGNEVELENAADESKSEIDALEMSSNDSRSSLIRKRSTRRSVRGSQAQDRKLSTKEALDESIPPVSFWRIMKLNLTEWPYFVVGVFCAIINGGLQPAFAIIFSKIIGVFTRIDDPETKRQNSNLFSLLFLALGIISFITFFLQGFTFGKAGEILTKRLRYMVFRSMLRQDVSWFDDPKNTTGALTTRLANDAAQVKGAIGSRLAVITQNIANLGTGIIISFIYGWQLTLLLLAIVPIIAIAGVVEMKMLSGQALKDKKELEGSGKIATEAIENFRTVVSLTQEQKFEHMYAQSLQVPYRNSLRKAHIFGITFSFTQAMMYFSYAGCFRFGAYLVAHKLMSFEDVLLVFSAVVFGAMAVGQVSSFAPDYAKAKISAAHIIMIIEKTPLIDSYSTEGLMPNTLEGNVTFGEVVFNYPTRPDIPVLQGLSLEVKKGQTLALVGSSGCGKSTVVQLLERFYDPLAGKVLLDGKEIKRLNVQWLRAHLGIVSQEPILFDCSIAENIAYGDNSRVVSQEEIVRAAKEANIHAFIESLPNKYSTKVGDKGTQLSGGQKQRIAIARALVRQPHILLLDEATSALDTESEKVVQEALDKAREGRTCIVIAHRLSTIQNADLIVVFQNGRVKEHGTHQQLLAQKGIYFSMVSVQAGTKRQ
Chain of Lysine-specific demethylase 5B (Q9UGL1 whole entry): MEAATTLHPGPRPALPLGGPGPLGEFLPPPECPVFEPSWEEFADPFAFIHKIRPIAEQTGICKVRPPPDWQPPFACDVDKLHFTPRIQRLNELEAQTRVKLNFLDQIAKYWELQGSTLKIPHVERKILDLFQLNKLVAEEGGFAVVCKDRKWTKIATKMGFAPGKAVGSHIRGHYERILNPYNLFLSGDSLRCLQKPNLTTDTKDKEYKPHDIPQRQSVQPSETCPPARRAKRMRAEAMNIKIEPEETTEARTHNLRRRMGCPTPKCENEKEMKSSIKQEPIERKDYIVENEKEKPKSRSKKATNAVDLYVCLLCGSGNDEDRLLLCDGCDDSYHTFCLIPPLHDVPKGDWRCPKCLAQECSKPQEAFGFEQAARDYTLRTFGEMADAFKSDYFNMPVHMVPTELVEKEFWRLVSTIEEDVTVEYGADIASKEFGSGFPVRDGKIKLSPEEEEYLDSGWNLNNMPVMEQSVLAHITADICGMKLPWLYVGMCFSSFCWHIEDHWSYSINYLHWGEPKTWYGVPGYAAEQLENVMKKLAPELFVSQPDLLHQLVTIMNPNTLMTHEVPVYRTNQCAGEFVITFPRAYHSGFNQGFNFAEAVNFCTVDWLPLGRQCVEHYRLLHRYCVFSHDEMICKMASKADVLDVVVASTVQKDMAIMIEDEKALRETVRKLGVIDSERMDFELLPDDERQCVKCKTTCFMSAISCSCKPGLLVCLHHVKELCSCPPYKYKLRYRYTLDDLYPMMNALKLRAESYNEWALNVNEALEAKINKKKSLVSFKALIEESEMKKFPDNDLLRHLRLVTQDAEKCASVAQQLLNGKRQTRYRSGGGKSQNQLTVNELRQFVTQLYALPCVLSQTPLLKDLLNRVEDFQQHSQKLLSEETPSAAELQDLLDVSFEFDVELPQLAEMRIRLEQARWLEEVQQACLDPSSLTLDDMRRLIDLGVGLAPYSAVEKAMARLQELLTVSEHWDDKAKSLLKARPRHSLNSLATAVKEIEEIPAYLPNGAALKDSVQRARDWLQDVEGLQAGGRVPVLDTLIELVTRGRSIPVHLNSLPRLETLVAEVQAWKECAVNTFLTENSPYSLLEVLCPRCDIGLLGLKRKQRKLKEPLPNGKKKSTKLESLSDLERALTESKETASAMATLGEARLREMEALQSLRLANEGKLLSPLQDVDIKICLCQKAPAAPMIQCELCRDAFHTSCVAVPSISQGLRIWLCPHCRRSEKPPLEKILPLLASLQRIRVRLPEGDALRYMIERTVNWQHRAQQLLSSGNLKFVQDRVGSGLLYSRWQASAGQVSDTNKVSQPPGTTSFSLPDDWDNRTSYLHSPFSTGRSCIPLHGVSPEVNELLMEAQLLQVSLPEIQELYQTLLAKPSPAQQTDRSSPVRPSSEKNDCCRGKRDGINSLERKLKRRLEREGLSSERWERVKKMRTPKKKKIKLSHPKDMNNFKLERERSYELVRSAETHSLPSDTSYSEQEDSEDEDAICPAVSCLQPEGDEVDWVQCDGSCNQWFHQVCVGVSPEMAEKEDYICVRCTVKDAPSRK

As a reminder, the clearance is the volume of plasma or blood freed of the substance per unit of time. Read a high clearance as a high capacity for elimination. One may read the IC50 as the point on the concentration scale where inhibition reaches its midpoint. High values mean weaker potency, low ones greater potency. In general, bioavailability refers to the share of a dose that reaches the circulation, judged against a reference dose that is usually intravenous. The low end stands for poor availability, the high end for good availability. The molecule `Cc1cc(Cl)ccc1COc1ccnn1-c1cc(C(=O)O)ccn1` returned a clearance in data set [1] of 2.1 mL/min/kg. Also, the figures for the IC50 in [2], in data set [6] and in data set [8] were 2 nM, 160 nM and 820 nM, respectively. Moreover, the “fold change (FC)” value in data set [3] was more than 2; in data set [9], more than 4. In [4], the bioavailability was 55%. Further, in data set [5], the Kinetic_solubility result is “Soluble”. Besides, in data set [7], the “inhibition (INH)” value is “Not Active”.
